Assay: DEX concentration in cochlear perilymph after intratympanic injection
Format: in vivo, guinea pig
Protocol: (1) Preparation of guinea pig models: The guinea pig model used in this example is the pigmented guinea pig model. The surgical anesthesia is given by intramuscular injection of ketamine HCl (40 mg per kg guinea pig body weight). The remaining injections are muscle relaxant Rompun® (Xylazine)(10 mg/kg guinea pig body weight), prophylactic antibiotic chloramphenicol sodium succinate (30 mg/kg guinea pig body weight), and local anesthetic Lidocaine HCl (1%, 0.5 mL).
(2) Preparation for the Guinea pig surgery and the experiment: The surgery is carried out by intratympanic injection. The guinea pig is anesthetized and operated under a dissecting surgical microscope after confirmation. A 22G needle is used to puncture the eardrum, and 200 μL of the temperature-sensitive microbubbles drug (DEX) hydrogel of the present disclosure is applied into the middle ear cavity. The experiments are performed in the ultrasound microbubble treatment group (USM), round window soaking group (RWS), and the group treated with DEX only without MBs (DEX only without MBs). The groups are as follows: USM group is injected with the temperature-sensitive microbubbles drug hydrogel at 3W energy for 1 minute. […] The concentrations of DEX are measured in the cochlear perilymph of guinea pigs on day 1 and day 7 after injection.

For `C[C@@H]1C[C@H]2[C@@H]3CCC4=CC(=O)C=C[C@]4(C)[C@@]3(F)[C@@H](O)C[C@]2(C)[C@@]1(O)C(=O)CO` [DEX only without MBs, dexamethasone], the “DEX concentration in cochlear perilymph” value (day 1 after injection, DEX only without MBs group) was “about 17.38±2.51 μg/mL” and the “DEX concentration in cochlear perilymph” value (day 7 after injection, DEX only group) was less than 3 ng/mL.

Source: patent US20220273799A1, “DRUG DELIVERY COMPOSITION, METHOD FORMING THE SAME AND METHOD FOR TREATING INNER EAR DISORDERS” (National Taiwan University of Science and Technology, priority 2021, published 2022)
